Assay results: patent US20250241895A1 (GH RESEARCH IRELAND LIMITED, priority 2022, published 2025)

Test: Pharmacokinetics of 5-MeO-DMT and bufotenine after inhalation
Assay type: in vivo, human
Details: LLOQ 25 pg/ml
Description: Blood samples were obtained at 1; 2; 4; 7; 10; 15; 20; 30; 45 min and 1; 1.5; 2; 3; 4 hours after administration.
PK parameters were generated by algebraic analysis of the concentration versus time plots for each individual. The analysis was carried out using the software Phoenix WinNonlin 6.3.

CN(C)CCc1c[nH]c2ccc(O)cc12 [bufotenine]
samples with bufotenine concentration above LLOQ: Only in few samples | bufotenine blood concentration (from 15 min onwards after 5-MeO-DMT inhalation): < 25 pg/mL
